Results taken from patent USRE44017E1, “N-acetyl aldosamines, N-acetylamino acids and related N-acetyl compounds and their topical use” (priority 1999, dated 2013).
Several values for one entry are separate records, joined by “and”; a condition that tells them apart may be missing. Equal values may be shown once.

How the values were obtained:
[1] = tested on: forearm skin; assay: Skin thickness of treated forearm measured by micrometer calipers; format: in vivo, human; settings: for increase in skin thickness: topically twice daily, treated forearm, no change in untreated forearm; for appearance of treated forearm: twice daily, untreated forearm still loose, thin and wrinkled
Experimental: In one of the studies related to skin changes associated with aging, skin thickness was measured by micrometer calipers as follows: The skin was grasped with a 2×6 cm metal hinge, the internal faces of the hinge were coated with emery cloth to prevent slippage, and manually squeezed to threshold subject discomfort. Combined thickness of two whole-skin layers including thickness of the two hinge leaves was measured with micrometer calipers. Thickness of the two hinge leaves was subtracted to determine the actual thickness of two whole-skin layers. Triplicate measurements on treated site were done and an average number was used for calculation of the skin thickness.

[2] = tested on: itch / pruritus; assay: Topical application to itchy skin or scalp lesions of single subjects; format: in vivo, human; settings: person
Experimental: A subject, having an itchy lesion of lichen simplex chronicus on their right lower leg topically applied the above cream to the lesion.
A typical composition suitable for topical use on hair, scalp, nail and skin comprising for example N-acetylamino acid may be formulated as follows. N-Acetyl-DL-proline 2 g was dissolved in 98 ml solution prepared from water 40 ml, ethanol 40 ml and propylene glycol 20 ml. The composition with pH 2.7 contained 2% N-acetyl-DL-proline. A subject, having itchy scalp topically applied the above composition to itchy area of scalp.
N-Acetyl-L-lysine 2 g was dissolved in a 98 ml solution prepared from water 40 ml, ethanol 40 ml and propylene glycol 20 ml. The composition with pH 6.5 contained 2% N-acetyl-L-lysine. A subject, having an oily and pruritic scalp topically applied the above composition to the affected area of the scalp, and the area was dried with warm air to remove excess solvents.
The subject topically applied N-acetyl-DL-proline 5% in oil-in-water cream to the itchy lesions.
A subject with chronic nummular eczema and pruritic dry skin topically applied N-acetyl-DL-proline 5% in solution to itchy skin areas of eczema and dry skin lesions.
A subject, having axillary itch due to use of a conventional antiperspirant topically applied N-acetyl-DL-proline 5% in solution to itchy underarm skin areas.
The subject topically applied N-acetyl-L-glutamine 5% in a solution prepared from water 4 parts, ethanol 4 parts and propylene glycol 2 parts by volume.
The subject topically applied N-acetyl-α-D-glucosamine 5% in a solution prepared from water 4 parts, ethanol 4 parts and propylene glycol 2 parts by volume.

[3] = tested on: forearm skin (epidermis, papillary dermis); assay: Biological effects of topically applied N-acetyl compound on skin: test chambers on forearm, punch biopsy, histochemical staining; format: in vivo, human; settings: 2% solution in water/propylene glycol, occlusive test chambers renewed twice weekly, five weeks
Experimental: In order to determine biological effects of a topically applied N-acetyl compound of the instant invention, seven women and one person of ages ranging from 58 to 81 years participated in this study. Topical formulation for the study was N-acetyl-L-cysteine 2% in a solution prepared from water 80 ml and propylene glycol 20 ml. Test sites were 1 cm square sites on extensor surface of forearm, 5 cm from the antecubital crease, a grid pattern formed by Hayes Test Chambers on Hayes adhesive strips. Each test chamber, 1 cm square, contained a square piece of filter paper which was fully moistened with 0.033 ml test solution. Test chambers were impressed on the skin to leave outlines which were marked with Sanford Sharpie permanent marker. Sites were re-marked at each successive application of test solutions. Vehicle control sites were on the opposite forearm. Filter paper of each chamber was saturated with 0.033 ml solution and chambers were fixed in place with the Hayes adhesive tape that held the test and vehicle chambers. […] Punch biopsy specimens, 3 mm or 4 mm in diameter, were secured at the end of the study, and specimens were processed and analyzed. […] Epidermal thickness was measured with Micro Image Analysis System, and the mean thickness was expressed as area of epidermis/horizontal length. The thickness of papillary dermis (upper dermis) was also measured.

[4] = ordinary storage conditions; results in a malodorous smell; cited from earlier work
[5] = tested on: xerosis and dry skin on lower legs; assay: Topical treatment of xerosis and dry skin; format: in vivo, human; settings: 5% cream, twice daily, one week, subject
Source text: A subject who had xerosis and dry skin on lower legs topically applied twice daily 5% N-acetyl-glucosamine cream for one week. After a few days of topical treatment, the skin became less rough and scaly, and felt smooth.

[6] = tested on: adolescent acne with multiple papules and pustules on face; assay: Topical treatment of acne; format: in vivo, human; settings: 5% solution, twice daily, after a few days, subject
Source text: A subject who had adolescent acne with multiple papules and pustules on their face applied topically twice daily 5% N-acetyl-glucosamine solution.

[7] = tested on: photodamaged / photoaged skin; settings: cited from earlier work
[8] = 5% cream, three weeks, one subject per value
[9] = 2% solution (water/ethanol/propylene glycol), pH 2.7, itchy scalp
[10] = 5% in oil-in-water cream, chronic Grover's Disease
[11] = 5% in solution, axillary itch due to antiperspirant
[12] = 5% in solution, chronic nummular eczema and pruritic dry skin
[13] = 10% cream, three weeks, one subject per value
[14] = 5% in solution, acute urticaria
[15] = 10% cream, four weeks, one subject per value
[16] = 5% in solution of water 4, ethanol 4, propylene glycol 2 parts, chronic Grover's Disease
[17] = 2% solution, pH 6.5, oily and pruritic scalp
[18] = 0.1% cream, topical application for 8 to 12 months (Weiss et al., JAAD 1988)

CC(=O)NC1CCSC1=O (racemic) [N-acetyl-DL-homocysteine thiolactone]
increase in skin thickness [1, 8]: 89% and 21% | appearance of treated forearm ([1]; 5% cream, three weeks): more firm, smooth, plump and minimally wrinkled when lifted

CC(=O)N1CCCC1C(=O)O (racemic) [N-acetyl-DL-proline]
scalp itch a few minutes after topical application [2, 9]: disappeared completely | time scalp remained free of itch [2, 9]: 24 h | severe itch a few minutes after topical application [2, 10]: disappeared completely | time lesions remained free of itch [2, 10]: 12 h | itch within a few minutes after topical application [2, 11]: disappeared completely | time skin remained free of itch [2, 11]: five | itch a few minutes after topical application [2, 12]: disappeared completely | time lesions remained free of itch [2, 12]: 48 h

CC(=O)NC(Cc1c[nH]c2ccccc12)C(=O)O (racemic) [N-acetyl-DL-tryptophan]
increase in skin thickness ([1]; 10% cream, five weeks, one subject): 12% | increase in skin thickness [1, 13]: 11% and 21% | appearance of treated forearm ([1]; 10% cream, five weeks): more firm, smooth, plump and minimally wrinkled when lifted | appearance of treated forearm ([1]; 10% cream, three weeks): more firm, smooth, plump and minimally wrinkled when lifted

CC(=O)N[C@H]1C(O)O[C@H](CO)[C@H](O)[C@@H]1O (stereo partly drawn) [N-acetyl-D-galactosamine]
effect on urticarial lesions [2, 14]: concomitant disappearance of urticarial lesions | severe itch a few minutes after topical application [2, 14]: disappeared completely | time skin remained free of itch [2, 14]: 24 h

CC(=O)N[C@@H](CCCNC(=N)N)C(=O)O [N-acetyl-L-arginine]
increase in skin thickness [1, 15]: 32% and 22% | appearance of treated forearm ([1]; 10% cream, four weeks): more firm, smooth, plump and minimally wrinkled when lifted

COC(=O)[C@H](CS)NC(C)=O [N-acetyl-L-cysteine methyl ester]
increase in skin thickness [1, 8]: 13% and 87% | appearance of treated forearm ([1]; 5% cream, three weeks): more firm, smooth, plump and minimally wrinkled when lifted | increase in skin thickness [1, 13]: 26% | appearance of treated forearm ([1]; 10% cream, three weeks): more firm, smooth, plump and minimally wrinkled when lifted

CC(=O)N[C@@H](CS)C(=O)O [N-acetyl-L-cysteine]
increase in skin thickness [1, 8]: 14% | appearance of treated forearm ([1]; 5% cream, three weeks): more firm, smooth, plump and minimally wrinkled when lifted | average increase in thickness of epidermis over the control ([3]; 8 subjects aged 58 to 81, vehicle control on opposite forearm): 96% | increase in production of hyaluronic acid in papillary dermis over the control ([3]; all test sites): 47-227% | stability on storage [4]: degrade under ordinary storage conditions

CC(=O)N[C@@H](CCC(N)=O)C(=O)O [N-acetyl-L-glutamine]
severe itch a few minutes after topical application [2, 16]: disappeared completely | time lesions remained free of itch [2, 16]: 24 h

CC(=O)N[C@@H](CCCCN)C(=O)O [N-acetyl-L-lysine]
scalp itch a few minutes after topical application [2, 17]: disappeared completely | time scalp remained free of itch [2, 17]: 12 h

CCOC(=O)[C@H](Cc1ccc(O)cc1)NC(C)=O [N-acetyl-L-tyrosine ethyl ester]
increase in skin thickness [1, 15]: 11% and 34% | appearance of treated forearm ([1]; 10% cream, four weeks): more firm, smooth, plump and minimally wrinkled when lifted

CC(=O)N[C@@H]1[C@@H](O)[C@H](O)[C@@H](CO)O[C@@H]1O [N-acetyl-glucosamine, N-Acetyl-α-D-glucosamine]
increase in skin thickness [1, 13]: 37% | appearance of treated forearm ([1]; 10% cream, three weeks): more firm, smooth, plump and minimally wrinkled when lifted | severe itch a few minutes after topical application [2, 16]: disappeared completely | time lesions remained free of itch [2, 16]: 24 h | effect on xerosis and dry skin [5]: returned to normal-looking skin | effect on acne lesions [6]: most lesions became less inflamed and gradually eradicated

CC1=C(/C=C/C(C)=C/C=C/C(C)=C/C(=O)O)C(C)(C)CCC1 [tretinoin]
effect on photodamaged skin ([7]; 0.05% in a cream, daily topical application (Kligman et al. 1986)): improve photodamaged skin | effect on aging skin [7, 18]: improve clinical signs of aging skin | side effects [7, 18]: burning sensation in the eyes and mild skin irritations | patients encountering dermatitis (side-effect) ([7]; 0.1%, daily topical application, 16 weeks (Weiss et al., JAMA 1988)): 92% | effect on photoaged skin ([7]; 0.1%, daily topical application, 16 weeks, compared to vehicle alone (Weiss et al., JAMA 1988)): improve photoaged skin
